# Test results reported in paper PMC10520499, “Next step in the development of mesoprogestins: the preclinical profile of EC313” (Frontiers in Endocrinology, 2023).
# Where “and” joins values, the source holds several entries; their conditions need not be identical. Identical values can stand only once. Marks after values point to notes of the source that are not given here.
# Legend:
# [1] = target: T1, human progesterone receptor ligand binding domain (PR-LBD) (Homo sapiens, UniProt P06401); experiment: Competitive binding, PR ligand binding domain; settings: compared to progesterone
# T1 construct: purchased Thermo Fisher Scientific
# T1 sequence (P06401 679-913 limits assumed): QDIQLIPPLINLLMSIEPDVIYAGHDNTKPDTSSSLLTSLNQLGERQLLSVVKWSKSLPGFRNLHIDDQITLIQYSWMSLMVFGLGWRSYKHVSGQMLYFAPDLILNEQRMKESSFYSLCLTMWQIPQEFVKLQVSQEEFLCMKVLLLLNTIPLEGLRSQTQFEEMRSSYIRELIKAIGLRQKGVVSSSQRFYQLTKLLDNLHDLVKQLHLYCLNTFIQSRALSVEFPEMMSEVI
# Description: (§1) The study aimed to characterize the competitive binding profile of EC313 to relevant human nuclear receptors. For the assays, commercially available ‘ligand binding domain’ proteins were purchased (Thermo Fisher Scientific). In addition, the full-length receptor proteins were expressed in transfected HI insect cells using the `Bac-to-bac Baculovirus expression system´ (Thermo Fisher Scientific). Cellular lysates served as receptor preparation. Receptor protein preparations were incubated with tritiated reference ligands and EC313 or reference steroids at concentrations between 0.1 and 1000 nM for 2h at 4°C to reach equilibrium. Subsequently, unbound steroids were adsorbed to dextran-coated charcoal (Sigma Aldrich), separated by filtration, and the remaining radioactivity was quantified in a ß-counter (Perkin Elmer). Displacement curves were fitted using the GraphPad Prism 7 free version to obtain EC50 values. Relative binding affinity (RBA [%], (C50ref/C50test)*100) and the competition coefficient (C50test/C50ref) were used to describe the relative binding potency of EC313 compared to the reference ligands.
# cycling guinea pigs = experiment: Ovulation inhibition in cycling guinea pigs; assay type: in vivo, guinea pig; settings: for Number of ovulations vs. number of inseminated females: cycle days 10-17
# Description: Test compounds were administered once daily from cycle days 10-17 by s. c. injection using 0.2 mL vehicle (benzyl-benzoate/castor oil, ratio 1 + 4 v/v). The time of autopsy (day 18) was 24-48h after the expected ovulation at the end of the treatment cycle. This design permits the study of the effects of the tested compounds on the expected ovulation. Fresh CL were evidence of a recent ovulation.
# [2] = test system: estrogen-primed endometrium of immature rabbits; experiment: McPhail assay, estrogen-primed rabbit endometrium; assay type: in vivo
# Description: The secretory transformation of estrogen-primed endometrium of immature rabbits indicates the strength of the progestagenic action on the endometrium of the chosen test compound. The simultaneous administration of test compounds with progesterone can indicate potential anti-progestagenic actions.
# Female rabbits received daily s.c. injections of 5.0 µg 17β-Estradiol/per animal for 6 days leading to the proliferation of the endometrium. From day 7 to day 13 the animals received doses of vehicle, EC313 (1 to 30 mg/animal/day s.c) or progesterone. On day 14, the animals were sacrificed and the uteri were processed for histological evaluation and the secretory endometrial transformation was rated according to a modified McPhail score (1 – 4).
# The rating scale ranges from 1 (no or very low secretory, transformation, or agonistic activity) to 4 (highest secretory, transformation, or agonistic activity). The McPhail score of 2 (median) was selected for the comparison. The antagonistic activity was measured by the concomitant administration of progesterone ([…] s.c.).
# Aqueous solubility = assay type: physicochemical
# GR [3] = target: T2, GR (Homo sapiens, UniProt P04150); experiment: Competitive binding, full length human glucocorticoid receptor; parameters: made in house; host or cells: HI (Hi5) insect cells, baculovirus; cellular lysate
# T2 sequence (P04150 1-777): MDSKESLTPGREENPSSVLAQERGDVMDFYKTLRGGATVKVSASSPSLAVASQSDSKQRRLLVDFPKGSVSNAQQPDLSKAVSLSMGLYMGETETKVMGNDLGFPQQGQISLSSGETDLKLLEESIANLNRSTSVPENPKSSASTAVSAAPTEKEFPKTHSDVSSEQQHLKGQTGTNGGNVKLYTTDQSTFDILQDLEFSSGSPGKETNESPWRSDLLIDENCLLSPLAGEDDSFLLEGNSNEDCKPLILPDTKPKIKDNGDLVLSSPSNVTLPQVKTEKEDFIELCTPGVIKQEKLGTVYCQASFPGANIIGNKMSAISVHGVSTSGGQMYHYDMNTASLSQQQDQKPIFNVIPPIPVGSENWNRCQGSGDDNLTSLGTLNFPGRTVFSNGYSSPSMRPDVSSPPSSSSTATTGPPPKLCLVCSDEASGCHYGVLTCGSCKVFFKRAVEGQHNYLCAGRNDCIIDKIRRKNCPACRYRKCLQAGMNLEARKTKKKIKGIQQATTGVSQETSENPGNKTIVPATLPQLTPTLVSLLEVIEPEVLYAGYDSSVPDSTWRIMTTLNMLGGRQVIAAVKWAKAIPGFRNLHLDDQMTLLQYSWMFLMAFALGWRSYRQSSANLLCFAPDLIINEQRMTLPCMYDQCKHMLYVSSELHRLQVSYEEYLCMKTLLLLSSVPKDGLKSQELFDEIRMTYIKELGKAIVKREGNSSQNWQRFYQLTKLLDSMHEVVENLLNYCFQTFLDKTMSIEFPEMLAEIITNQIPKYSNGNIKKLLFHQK
# Description: as §1
# GR [4] = target: T2, GR; experiment: GR transactivation (HELA, MMTV-LUC); assay type: cell-based; parameters: HELA cells line carrying endogenous glucocorticoid protein; endogenous in cells; host or cells: HELA, stably transfected with the reporter only
# Description: HELA cells line carrying endogenous glucocorticoid protein were cultured in order to study gene expression on the transcriptional level under the influence of the tested compounds. The cells were transfected with reporter vector MMTV/LUC. To produce high protein overexpression, stable transfection was carried out. […] Agonist and antagonist properties of EC313 toward tested receptor GR were analyzed using luminescence detection.
# In order to develop the transfection assay, plasmids were generated and isolated. Vector pGL4.36 coding the glucocorticoid receptor responsive element MMTV and firefly luciferase reporter vector [luc2P/Hygro] were used as a reporter system (pGL4.36-MMTV/LUC). The cells were transfected with reporter vector MMTV/LUC.
# stable transfection with reporter vector was performed on a 6-well plate (0.5x10^6 cells per well) in culture medium (EMEM, 10% FBS, NEAA, sodium […], L-glutamine). Briefly, according to the transfection procedure, cells were passaged, and they grew in a culture medium containing an appropriate concentration of the antibiotic (Hygromycin 150 µg/mL). Resistance to Hygromycin gene, which had been transfected together with the reporter vector to the cells, only allowed positively transfected cells to grow in this medium. Therefore, growing cell clones were selected for further steps as stable transfectants.
# After 24h incubation of cells with the tested compounds, luciferase activity was measured using VICTOR™ X Multilabel Plate Reader -Perkin Elmer.
structure (smiles),measurement,setting,value
C[C@]12C[C@H](c3ccc(-c4ccoc4)cc3)C3=C4CCC(=O)C=C4CC[C@H]3[C@@H]1CC[C@]21OCCC1=C(F)F [EC313],affinity to the ligand binding domain,[1],the same as that of progesterone
same,Number of ovulations vs. number of inseminated females,cycling guinea pigs; 0.1 mg/animal/day s.c.,1/5
same,Number of ovulations vs. number of inseminated females,cycling guinea pigs; 1.0 mg/animal/day s.c.,0/5
same,Number of ovulations vs. number of inseminated females,cycling guinea pigs; 10.0 mg/animal/day s.c.,0/8
same,inhibition of ovulation,cycling guinea pigs; 1 and 10 mg/animal/day s.c.,Full inhibition of ovulation
same,effects in the vaginal epithelium,"cycling guinea pigs; non-pregnant guinea pigs, all tested dose levels, 0.1 to 10.0 mg/animal/day s.c.",mucification
same,Quotient between antagonistic and agonistic action,[2]; McPhail score 2 doses,~ 10.0*
same,"maximal effect, McPhail score (average per treatment group)","[2]; agonistic, 1 to 30 mg/animal/day s.c., scale 1-4",≤ 2.5
same,Score 2 for PR-agonistic activity,[2]; dose giving McPhail score 2,~ 1.0 mg/animal/day s.c.
same,Score 2 for PR-antagonistic activity,"[2]; dose giving McPhail score 2, concomitant progesterone (1 g/animal/day [sic] s.c.)",~ 10.0 mg/animal/day s.c.
same,relatively more agonistic than antagonistic effects in comparison with Asoprisnil,"[2]; rabbit, in vivo",approx. 7 times
same,aqueous solubility,Aqueous solubility,very low aqueous solubility
same,Comp. Coefficient,GR [3]; EC313 relative to Dexamethasone,12 and 11.8
same,IC50,GR [3]; tritiated ligand displacement,226 ± 9 nM
same,activity on GR in transactivation,GR [4],weak inhibitor
same,IC50,"GR [4]; comparative transactivation profile, read-out: Potency, GR Antagonism",100 nM
